Experimental data published in PubChem BioAssay (NCI).
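A five-concentration, 48-hour dose response in 96-well plates underlies each endpoint, interpolated linearly between surrounding concentrations. TGI: concentration producing complete growth inhibition.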

Legend:
Experiment in all cases: NCI tumour cell line growth inhibition, 48 h
SK-MEL-28 melanoma = system: SK-MEL-28 melanoma
MCF7 breast = system: MCF7 breast
RPMI-8226 leukemia = system: RPMI-8226 leukemia
HOP-62 NSCLC = system: HOP-62 NSCLC
UO-31 renal = system: UO-31 renal
786-0 renal = system: 786-0 renal
A549 NSCLC = system: A549 NSCLC
BT-549 breast = system: BT-549 breast
M14 melanoma = system: M14 melanoma
SF-268 CNS = system: SF-268 CNS
A498 renal = system: A498 renal
HS 578T breast = system: HS 578T breast
MDA-MB-231 breast = system: MDA-MB-231 breast
UACC-257 melanoma = system: UACC-257 melanoma
MOLT-4 leukemia = system: MOLT-4 leukemia
SK-MEL-2 melanoma = system: SK-MEL-2 melanoma
SK-OV-3 ovarian = system: SK-OV-3 ovarian
COLO 205 colon = system: COLO 205 colon
SW-620 colon = system: SW-620 colon
EKVX NSCLC = system: EKVX NSCLC
OVCAR-5 ovarian = system: OVCAR-5 ovarian
CAKI-1 renal = system: CAKI-1 renal
NCI-H226 lung = system: NCI-H226 lung
NCI/ADR-RES ovarian = system: NCI/ADR-RES ovarian
LOX IMVI melanoma = system: LOX IMVI melanoma
SR leukemia = system: SR leukemia
HCT-116 colon = system: HCT-116 colon
SNB-75 CNS = system: SNB-75 CNS
TK-10 renal = system: TK-10 renal
DU-145 prostate = system: DU-145 prostate
UACC-62 melanoma = system: UACC-62 melanoma
OVCAR-8 ovarian = system: OVCAR-8 ovarian
IGROV1 ovarian = system: IGROV1 ovarian
OVCAR-4 ovarian = system: OVCAR-4 ovarian
T-47D breast = system: T-47D breast
OVCAR-3 ovarian = system: OVCAR-3 ovarian
SF-539 CNS = system: SF-539 CNS
SNB-19 CNS = system: SNB-19 CNS
K-562 leukemia = system: K-562 leukemia
NCI-H460 lung = system: NCI-H460 lung
NCI-H522 lung = system: NCI-H522 lung
HT29 colon = system: HT29 colon
ACHN renal = system: ACHN renal
SF-295 CNS = system: SF-295 CNS
MDA-MB-435 = system: MDA-MB-435
HCT-15 colon = system: HCT-15 colon
HOP-92 NSCLC = system: HOP-92 NSCLC
CCRF-CEM leukemia = system: CCRF-CEM leukemia
PC-3 prostate = system: PC-3 prostate
SK-MEL-5 melanoma = system: SK-MEL-5 melanoma
U251 CNS = system: U251 CNS
SN12C renal = system: SN12C renal
NCI-H23 lung = system: NCI-H23 lung
MDA-N = system: MDA-N
KM12 colon = system: KM12 colon
HCC-2998 colon = system: HCC-2998 colon
HL-60(TB) leukemia = system: HL-60(TB) leukemia
MALME-3M melanoma = system: MALME-3M melanoma

Compound: CC1(O)CCC(C(C)(C)O)CC1 (configuration not stated)
- TGI (SK-MEL-28 melanoma): > 100 µM
- TGI (MCF7 breast): > 100 µM
- TGI (RPMI-8226 leukemia): > 100 µM
- TGI (HOP-62 NSCLC): > 100 µM
- TGI (UO-31 renal): > 100 µM
- TGI (786-0 renal): > 100 µM
- TGI (A549 NSCLC): > 100 µM
- TGI (BT-549 breast): > 100 µM
- TGI (M14 melanoma): > 100 µM
- TGI (SF-268 CNS): > 100 µM
- TGI (A498 renal): > 100 µM
- TGI (HS 578T breast): > 100 µM
- TGI (MDA-MB-231 breast): > 100 µM
- TGI (UACC-257 melanoma): > 100 µM
- TGI (MOLT-4 leukemia): > 100 µM
- TGI (SK-MEL-2 melanoma): > 100 µM
- TGI (SK-OV-3 ovarian): > 100 µM
- TGI (COLO 205 colon): > 100 µM
- TGI (SW-620 colon): > 100 µM
- TGI (EKVX NSCLC): > 100 µM
- TGI (OVCAR-5 ovarian): > 100 µM
- TGI (CAKI-1 renal): > 100 µM
- TGI (NCI-H226 lung): > 100 µM
- TGI (NCI/ADR-RES ovarian): > 100 µM
- TGI (LOX IMVI melanoma): > 100 µM
- TGI (SR leukemia): > 100 µM
- TGI (HCT-116 colon): > 100 µM
- TGI (SNB-75 CNS): > 100 µM
- TGI (TK-10 renal): > 100 µM
- TGI (DU-145 prostate): > 100 µM
- TGI (UACC-62 melanoma): > 100 µM
- TGI (OVCAR-8 ovarian): > 100 µM
- TGI (IGROV1 ovarian): > 100 µM
- TGI (OVCAR-4 ovarian): > 100 µM
- TGI (T-47D breast): > 100 µM
- TGI (OVCAR-3 ovarian): > 100 µM
- TGI (SF-539 CNS): > 100 µM
- TGI (SNB-19 CNS): > 100 µM
- TGI (K-562 leukemia): > 100 µM
- TGI (NCI-H460 lung): > 100 µM
- TGI (NCI-H522 lung): > 100 µM
- TGI (HT29 colon): > 100 µM
- TGI (ACHN renal): > 100 µM
- TGI (SF-295 CNS): > 100 µM
- TGI (MDA-MB-435): > 100 µM
- TGI (HCT-15 colon): > 100 µM
- TGI (HOP-92 NSCLC): > 100 µM
- TGI (CCRF-CEM leukemia): > 100 µM
- TGI (PC-3 prostate): > 100 µM
- TGI (SK-MEL-5 melanoma): > 100 µM
- TGI (U251 CNS): > 100 µM
- TGI (SN12C renal): > 100 µM
- TGI (NCI-H23 lung): > 100 µM
- TGI (MDA-N): > 100 µM
- TGI (KM12 colon): > 100 µM
- TGI (HCC-2998 colon): > 100 µM
- TGI (HL-60(TB) leukemia): > 100 µM

Compound: C/C(=N/OC(=O)c1cccc2c(=O)c3ccccc3[nH]c12)[C@H]1CC[C@H]2[C@@H]3CCC4=C/C(=N/OC(=O)c5cccc6c(=O)c7ccccc7[nH]c56)CC[C@]4(C)[C@H]3CC[C@]12C
- TGI (MCF7 breast): 26.4 µM
- TGI (RPMI-8226 leukemia): 14.6 µM
- TGI (HOP-62 NSCLC): 51.2 µM
- TGI (UO-31 renal): 28.5 µM
- TGI (786-0 renal): 44.7 µM
- TGI (A549 NSCLC): > 100 µM
- TGI (BT-549 breast): 34.8 µM
- TGI (M14 melanoma): 29.7 µM
- TGI (SF-268 CNS): 45.5 µM
- TGI (HS 578T breast): > 100 µM
- TGI (MDA-MB-231 breast): 30.6 µM
- TGI (UACC-257 melanoma): 33.4 µM
- TGI (MOLT-4 leukemia): 39.6 µM
- TGI (SK-MEL-2 melanoma): 32.8 µM
- TGI (SK-OV-3 ovarian): 93.2 µM
- TGI (COLO 205 colon): 30.3 µM
- TGI (SW-620 colon): 27.1 µM
- TGI (EKVX NSCLC): 71.3 µM
- TGI (OVCAR-5 ovarian): 33.7 µM
- TGI (CAKI-1 renal): 47.2 µM
- TGI (NCI-H226 lung): 52.8 µM
- TGI (NCI/ADR-RES ovarian): 43.1 µM
- TGI (MALME-3M melanoma): 37.3 µM
- TGI (LOX IMVI melanoma): 26.7 µM
- TGI (SR leukemia): 25.3 µM
- TGI (HCT-116 colon): 25 µM
- TGI (SNB-75 CNS): 97.6 µM
- TGI (TK-10 renal): 45.2 µM
- TGI (DU-145 prostate): 79.3 µM
- TGI (UACC-62 melanoma): 32.1 µM
- TGI (OVCAR-8 ovarian): 33.3 µM
- TGI (IGROV1 ovarian): 37.1 µM
- TGI (OVCAR-4 ovarian): > 100 µM
- TGI (T-47D breast): 58.8 µM
- TGI (OVCAR-3 ovarian): 34.4 µM
- TGI (SF-539 CNS): 29.5 µM
- TGI (SNB-19 CNS): 39.4 µM
- TGI (K-562 leukemia): > 100 µM
- TGI (NCI-H522 lung): 26.2 µM
- TGI (HT29 colon): 28.8 µM
- TGI (ACHN renal): 29.5 µM
- TGI (SF-295 CNS): 34.6 µM
- TGI (MDA-MB-435): 33.3 µM
- TGI (HCT-15 colon): 27 µM
- TGI (HOP-92 NSCLC): 42.6 µM
- TGI (CCRF-CEM leukemia): 16.3 µM
- TGI (PC-3 prostate): 31.5 µM
- TGI (SK-MEL-5 melanoma): 26.4 µM
- TGI (U251 CNS): 29.6 µM
- TGI (SN12C renal): 30.6 µM
- TGI (NCI-H23 lung): 29.9 µM
- TGI (MDA-N): 30.3 µM
- TGI (KM12 colon): 38.2 µM
- TGI (HCC-2998 colon): 26.9 µM
- TGI (HL-60(TB) leukemia): 34 µM
